These results are taken from patent US8367319B2, “Methods and compositions for the identification of antibiotics that are not susceptible to antibiotic resistance” (Wayne State University, priority 2002, dated 2013).

SMILES strings stand for the structures. Converted amounts (≈) assume the structure as drawn. Where two headings read alike, the source gives them in different places.

Experiment [1] has as its system E. coli DH5. The experiment is described as follows: Minimum inhibitory concentration (MIC) of chloramphenicol for cells expressing plasmid-derived ribosomes (CAT reporter). The following applies: for MIC: Escherichia coli. The class given is cell-based. As for the experimental part:
Bacterial strains and media. All plasmids were maintained and expressed in E. coli DH5 (supE44, hsdR17, recA1, endA1, gyrA96, thi-1 and relA1) (36). To induce synthesis of plasmid-derived rRNA from the lacUV5 promoter, IPTG was added to a final concentration of 1 mM. Chloramphenicol acetyltransferase activity was determined essentially as described by Nielsen et al. (1989) Anal. Biochem. 179: 19-23. Cultures for CAT assays were grown in LB-Ap100. MIC were determined by standard methods in microtiter plates as described in Lee, K., et al. (1997) J. Mol. Biol. 269: 732-743.
Minimum inhibitory concentration determination. MICs were determined by standard methods in microtiter plates or on solid medium. Overnight cultures grown in LB-Ap100 were diluted and induced in the same medium containing 1 mM IPTG for three hours. Approximately 10^4 induced cells were then added to wells (or spotted onto solid medium) containing LB-Ap100+ IPTG (1 mM) and chloramphenicol at increasing concentrations.

Experiment [2] deals with E. coli DH5. Described as above. The class given is cell-based. The following applies: for MIC: Escherichia coli. The source holds these as a separate data set.

Regarding `O=C(N[C@H](CO)[C@H](O)c1ccc([N+](=O)[O-])cc1)C(Cl)Cl` [chloramphenicol], the MIC is 400 to 600 µg/mL in experiment [1] (DH5, 451 of 536 selected MBS-RBS isolates (84.1%), in the presence of inducer, read-out: MIC of chloramphenicol); 600 µg/mL in experiment [1] (DH5, 24 h, cells expressing wild-type rRNA from pRNA122 (unmutated control), induced with 1 mM IPTG, 24 hours, read-out: MIC of chloramphenicol); less than 350 µg/mL in experiment [1] (DH5, 24 h, nine slow growing MBS-RBS isolates (1.7%), in the presence of inducer, scored after 24 hours, read-out: MIC of chloramphenicol); 550 to 600 µg/mL in experiment [1] (DH5, pRNA122 (specialized ribosomes), induced cells, read-out: MIC of chloramphenicol); 320 µg/mL in experiment [1] (DH5, read-out: MIC of chloramphenicol, mean over mutants, cells expressing 78 functional 790-loop mutants in pRNA122, standard deviation 89); 350 µg/mL in experiment [1] (DH5, read-out: MIC of chloramphenicol, median and mode over mutants, cells expressing 78 functional 790-loop mutants in pRNA122). Also, the MIC in experiment [1] (DH5, read-out: MIC of chloramphenicol, remaining 76 selected MBS-RBS clones (14.2%), in the presence of inducer) was 600 µg/mL; in experiment [2] (DH5, pRNA122 (specialized ribosomes), uninduced, read-out: background chloramphenicol MIC), 40 to 50 µg/mL (≈ 124 to 155 µM); in experiment [2] (DH5, uninduced cells containing pRNA100 (FIG. 13), read-out: MIC of chloramphenicol), 100 µg/mL. For the same compound, in experiment [1] (pRNA122 + wt MBS: CAT message translated by wild-type ribosomes), the “chloramphenicol concentration to which cells are sensitive” value was less than 10 µg/mL. Also, in experiment [1] ({}), the “MIC of chloramphenicol, range over mutants” value is 150 to 550 µg/mL. This compound also came in with a Chloramphenicol resistance in experiment [2] (uninduced cells containing pRNA100) of 75 µg/mL.
